PubChem BioAssay AID380

Target: Adenylate kinase 4, mitochondrial (Homo sapiens) (UniProt P27144)
Test: ligand-induced stabilization of human AK3 (AK4) – biophysical, DSF, SYPRO orange (AID 380)
Conditions: recombinant protein, DSF SYPRO orange thermal shift; at 5 µM; protein 1 µM; buffer 10 mM HEPES; stronger effect = higher value

Chain of Adenylate kinase 4, mitochondrial (Homo sapiens) (P27144 whole entry, looked up): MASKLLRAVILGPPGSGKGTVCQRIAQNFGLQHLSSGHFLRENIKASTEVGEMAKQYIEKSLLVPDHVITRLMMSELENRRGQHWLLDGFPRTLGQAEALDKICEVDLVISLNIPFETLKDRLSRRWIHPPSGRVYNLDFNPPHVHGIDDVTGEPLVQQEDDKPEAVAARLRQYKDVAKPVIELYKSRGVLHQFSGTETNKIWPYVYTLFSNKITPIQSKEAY

Tm shift: 17.2 Celsius
Structure (SMILES): Nc1ncnc2c1ncn2[C@@H]1O[C@H](COP(=O)(O)OP(=O)(O)OP(=O)(O)OP(=O)(O)OP(=O)(O)OC[C@H]2O[C@@H](n3cnc4c(N)ncnc43)[C@H](O)[C@@H]2O)[C@@H](O)[C@H]1O
